The test system of one assay is MDA-MB-231 (breast) cancer cells. The assay is described as follows: Cell viability (MTT) assay, MDA cells. Conditions: 72 hours, MTT based assay. The protocol:
MDA-MD-231 (breast) and SKOV-3 (ovarian) cancer cells were cultured in RPMI1640 media supplemented with 10% FBS and 100 units/mL of Penicillin and Steptomycin.
Viability assays were done on a number of cells including MDA-MB-231, SKOV-3, H460, PC3, HCT-116, and SW480 cells. Cells were seeded in 96 well plates at a respective density of 5000 and 2000 cells per well and incubated at 37° C. in presence of 5% CO2 for 24 hours. Selected compounds were diluted into the media at various concentration ranging from 0.01 uM up to 100 uM. Diluted compounds were added onto the MDA-MB-231 cells. For the MDA-MB-231 SKOV3, H460, PC3, HCT-116, and SW480 cells, the compounds were added either alone or in presence of 1-3 ng/ml of TRAIL. After 72 hours cellular viability was evaluated by MTT based assays.
In general terms: Tetrazolium assays rely on reduction of a dye to a coloured formazan, in cell work by metabolically active cells.
`CN[C@@H](C)C(=O)N[C@@H](CCC(=O)NCCNC(=O)CC[C@H](NC(=O)[C@H](C)NC)C(=O)N1CCC[C@H]1CN(CCc1ccccc1)C(=O)C(F)(F)F)C(=O)N1CCC[C@H]1CN(CCc1ccccc1)C(=O)C(F)(F)F` [Compound 30]: the EC50 – broadly, the concentration needed to bring the measured effect to its halfway point – is < 100 nM. Still for that read-out and setting: to `CN[C@@H](C)C(=O)N[C@@H](CCC(=O)NCCNC(=O)CC[C@H](NC(=O)[C@H](C)NC)C(=O)N1CCC[C@H]1CN(CCc1ccccc1)C(=O)C(F)(F)F)C(=O)N1CCC[C@H]1CN(CCc1ccccc1)C(=O)C(F)(F)F` [Compound 21] belongs < 1000 nM.

For `CN[C@@H](C)C(=O)N[C@@H](CCC(=O)NCCNC(=O)CC[C@H](NC(=O)[C@H](C)NC)C(=O)N1CCC[C@H]1CN(CCc1ccccc1)C(=O)C(F)(F)F)C(=O)N1CCC[C@H]1CN(CCc1ccccc1)C(=O)C(F)(F)F` [Compound 31], the concentration for a half-maximal effect (EC50) was < 100 nM. On the same count and under the same terms, to `CN[C@@H](C)C(=O)N[C@@H](CCC(=O)NCCNC(=O)CC[C@H](NC(=O)[C@H](C)NC)C(=O)N1CCC[C@H]1CN(CCc1ccccc1)C(=O)C(F)(F)F)C(=O)N1CCC[C@H]1CN(CCc1ccccc1)C(=O)C(F)(F)F` [Compound 19] belongs < 1000 nM; to `CN[C@@H](C)C(=O)N[C@@H](CCC(=O)NCCNC(=O)CC[C@H](NC(=O)[C@H](C)NC)C(=O)N1CCC[C@H]1CN(CCc1ccccc1)C(=O)C(F)(F)F)C(=O)N1CCC[C@H]1CN(CCc1ccccc1)C(=O)C(F)(F)F` [Compound 22], < 100 nM. Still for that read-out and setting: to `CN[C@@H](C)C(=O)N[C@@H](CCC(=O)NCCNC(=O)CC[C@H](NC(=O)[C@H](C)NC)C(=O)N1CCC[C@H]1CN(CCc1ccccc1)C(=O)C(F)(F)F)C(=O)N1CCC[C@H]1CN(CCc1ccccc1)C(=O)C(F)(F)F` [Compound 20] belongs < 1000 nM.

Still in this assay, the particulars now being: Homo sapiens, MDA-MB-231, 72 h, MTT based assay.
Regarding `CN[C@@H](C)C(=O)N[C@@H](CC(=O)NCCNC(=O)C[C@H](NC(=O)[C@H](C)NC)C(=O)N1CCC[C@H]1CN(CCc1ccccc1)C(=O)C(F)(F)F)C(=O)N1CCC[C@H]1CN(CCc1ccccc1)C(=O)C(F)(F)F` [Compound 35], the concentration for a half-maximal effect (EC50) is < 1000 nM. Still for that read-out and setting: to `CN[C@@H](C)C(=O)NC(CCCNC(=O)c1ccc(C(=O)NCCC[C@H](NC(=O)[C@H](C)NC)C(=O)N2CCC[C@H]2C(=O)N[C@@H]2CCCc3ccccc32)cc1)C(=O)N1CCC[C@H]1C(=O)N[C@@H]1CCCc2ccccc21` (some centres unmarked) [Compound 15] belongs < 100 nM; to `CN[C@@H](C)C(=O)N[C@H](C(=O)N1CCC[C@H]1CN(CCc1ccccc1)C(=O)CNCc1ccccc1)[C@@H](C)OCC#CC#CCO[C@H](C)[C@H](NC(=O)[C@H](C)NC)C(=O)N1CCC[C@H]1CN(CCc1ccccc1)C(=O)CNCc1ccccc1` [Compound 10], < 100 nM. Still for that read-out and setting: to `CN[C@@H](C)C(=O)N[C@@H](COCC#CC#CCOC[C@H](NC(=O)[C@H](C)NC)C(=O)N1CCC[C@H]1CN(CCc1ccccc1)C(=O)C(F)(F)F)C(=O)N1CCC[C@H]1CN(CCc1ccccc1)C(=O)C(F)(F)F` [Compound 24] belongs < 100 nM. For `CN[C@@H](C)C(=O)N[C@@H](CCC(=O)NCc1ccc(CNC(=O)CC[C@H](NC(=O)[C@H](C)NC)C(=O)N2CCC[C@H]2CN(CCc2ccccc2)C(=O)C(F)(F)F)cc1)C(=O)N1CCC[C@H]1CN(CCc1ccccc1)C(=O)C(F)(F)F` [Compound 17], the EC50 was < 1000 nM. On the same count and under the same terms, then `CN[C@@H](C)C(=O)N[C@@H](CCCNC(=O)NCCC[C@H](NC(=O)[C@H](C)NC)C(=O)N1CCC[C@H]1C(=O)N[C@@H]1CCCc2ccccc21)C(=O)N1CCC[C@H]1C(=O)N[C@@H]1CCCc2ccccc21` [Compound 16], with < 100 nM. Turning to `CN[C@@H](C)C(=O)N[C@H](C(=O)N1CCC[C@H]1CN(CCc1ccccc1)C(=O)C(C)C)[C@@H](C)OCC#CC#CCO[C@H](C)[C@H](NC(=O)[C@H](C)NC)C(=O)N1CCC[C@H]1CN(CCc1ccccc1)C(=O)C(C)C` [Compound 26], the half-maximal effective concentration (EC50) is < 100 nM.

The assay is the same for the next values; noted with them: Homo sapiens, MDA-MB-231; 72 hours, MTT based assay.
Turning to `CN[C@@H](C)C(=O)N[C@H](C(=O)N1CCC[C@H]1CN(CCc1ccccc1)C(=O)CF)[C@@H](C)OCC#CC#CCO[C@H](C)[C@H](NC(=O)[C@H](C)NC)C(=O)N1CCC[C@H]1CN(CCc1ccccc1)C(=O)CF` [Compound 29], the EC50 was < 100 nM.
